# Assay results taken from patent publication US8299111B2, “Compounds which modulate the CB2 receptor” (Boehringer Ingelheim International GmbH, priority 2006, dated 2012).
# Biological target: T1, human CB2R (Homo sapiens, UniProt P34972)
# T1 construct: host or cells: CHO cells
# Test: CB2R mediated modulation of cAMP synthesis
# Type: cell-based
# Details: found through the use of the above described assays (binding and cAMP); CHO cells expressing human CB2R, forskolin-stimulated cAMP
# Method: B. CB2R Mediated Modulation of cAMP Synthesis:
# CHO cells expressing human CB2R (Euroscreen) were plated at a density of 5000 cells per well in 384 well plates and incubated overnight at 37° C. After removing the media, the cells were treated with test compounds diluted in stimulation buffer containing 1 mM IBMX, 0.25% BSA and 10 uM Forskolin. The assay was incubated for 30 minutes at 37° C. Cells were lysed and the cAMP concentration was measured using DiscoverX -XS cAMP kit, following the manufacturer's protocol. In this setting, agonists will decrease forskolin induced production of cAMP while inverse agonists will further increase forskolin induced production of cAMP. EC50 of agonists were calculated as follows. The maximal amount of cAMP produced by forskolin compared to the level of cAMP inhibited by 1 uM CP55940 is defined as 100%. The EC50 value of each test compound was determined as the concentration at which 50% of the forskolin-stimulated cAMP synthesis was inhibited. Data was analyzed using a four-parameter logistic model. (Model 205 of XLfit 4.0).
# T1 sequence (P34972 whole entry): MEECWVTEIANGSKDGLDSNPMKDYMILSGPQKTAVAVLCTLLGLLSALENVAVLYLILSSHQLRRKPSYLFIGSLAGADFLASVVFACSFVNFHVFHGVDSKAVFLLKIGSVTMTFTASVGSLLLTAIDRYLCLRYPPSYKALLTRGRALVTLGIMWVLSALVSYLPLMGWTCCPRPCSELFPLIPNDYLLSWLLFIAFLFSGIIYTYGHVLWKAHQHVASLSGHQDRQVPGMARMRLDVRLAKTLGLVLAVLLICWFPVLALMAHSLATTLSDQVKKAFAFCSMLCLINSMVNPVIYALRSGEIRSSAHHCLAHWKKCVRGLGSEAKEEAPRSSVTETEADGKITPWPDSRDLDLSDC
row,SMILES,agonistic activity
1,Cc1cc(NC(=O)C(C)(C)S(=O)(=O)c2ccc(Cl)cc2)n(-c2ccccc2)n1 [2-(4-Chloro-benzenesulfonyl)-2-methyl-N-(5-methyl-2-phenyl-2H-pyrazol-3-yl)-propionamide],agonistic activity
2,CC(C)(C(=O)Nc1nc(-c2ccccn2)cs1)S(=O)(=O)c1ccc(Cl)cc1 [2-(4-Chloro-benzenesulfonyl)-2-methyl-N-(4-pyridin-2-yl-thiazol-2-yl)-propionamide],agonistic activity
3,CC(C)(C)c1cc(NC(=O)C2(S(=O)(=O)c3ccc(Cl)cc3)CCC2)no1 [1-(4-Chloro-benzenesulfonyl)-cyclobutanecarboxylic acid (5-tert-butyl-isoxazol-3-yl)-amide],agonistic activity
4,CC(C)(C(=O)Nc1ccc(C(F)(F)F)cc1F)S(=O)(=O)c1ccc(Cl)cc1 [2-[(4-chlorophenyl)sulfonyl]-N-[2-fluoro-4-(trifluoromethyl)phenyl]-2-methylpropanamide],agonistic activity
5,"CCc1sc(NC(=O)C(C)(C)S(=O)(=O)c2ccc(F)cc2F)nc1-c1ccccc1 [2-[(2,4-difluorophenyl)sulfonyl]-N-(5-ethyl-4-phenyl-1,3-thiazol-2-yl)-2-methylpropanamide]",agonistic activity
6,CC(C)(C)c1cc(NC(=O)C(C)(C)S(=O)(=O)c2ccc(Cl)nc2)no1 [N-(5-tert-Butyl-isoxazol-3-yl)-2-(6-chloro-pyridine-3-sulfonyl)-2-methyl-propionamide],agonistic activity
7,"COc1ccc(S(=O)(=O)C(C)(C)C(=O)Nc2nc(C(C)(C)C)cs2)cc1 [N-(4-tert-butyl-1,3-thiazol-2-yl)-2-[(4-methoxyphenyl)sulfonyl]-2-methylpropanamide]",agonistic activity
8,CC(C)(C(=O)Nc1ccc(C(F)(F)F)cc1)S(=O)(=O)c1ccc(Cl)cc1F [2-[(4-chloro-2-fluorophenyl)sulfonyl]-2-methyl-N-[4-(trifluoromethyl)phenyl]propanamide],agonistic activity
9,"CC(C)(C(=O)Nc1nc(-c2ccc(F)cc2)cs1)S(=O)(=O)c1ccc(Cl)cc1 [2-[(4-chlorophenyl)sulfonyl]-N-[4-(4-fluorophenyl)-1,3-thiazol-2-yl]-2-methylpropanamide]",agonistic activity
10,CC(C)c1cc(NC(=O)C(C)(C)S(=O)(=O)c2ccc(Cl)cc2)on1 [2-(4-Chloro-benzenesulfonyl)-N-(3-isopropyl-isoxazol-5-yl)-2-methyl-propionamide],agonistic activity
11,CC(C)(C(=O)Nc1nc(-c2cccnc2)cs1)S(=O)(=O)c1ccc(Cl)cc1 [2-(4-Chloro-benzenesulfonyl)-2-methyl-N-(4-pyridin-3-yl-thiazol-2-yl)-propionamide],agonistic activity
12,CCc1sc(NC(=O)C(C)(C)S(=O)(=O)c2ccccc2)nc1-c1ccccc1 [2-Benzenesulfonyl-N-(5-ethyl-4-phenyl-thiazol-2-yl)-2-methyl-propionamide],agonistic activity
13,COc1ccc(NC(=O)C(C)(C)S(=O)(=O)c2ccc(Cl)cc2)cn1 [2-(4-Chloro-benzenesulfonyl)-N-(6-methoxy-pyridin-3-yl)-2-methyl-propionamide],agonistic activity
14,"CC(C)(C)Cc1cc(NC(=O)C(C)(C)S(=O)(=O)c2ccc(F)cc2F)on1 [2-[(2,4-difluorophenyl)sulfonyl]-N-[3-(2,2-dimethylpropyl)isoxazol-5-yl]-2-methylpropanamide]",agonistic activity
15,Cc1nc(NC(=O)C(C)(C)S(=O)(=O)c2ccc(Cl)cc2)sc1C(C)(C)C [N-(5-tert-Butyl-4-methyl-thiazol-2-yl)-2-(4-chloro-benzenesulfonyl)-2-methyl-propionamide],agonistic activity
16,"CC(C)(C(=O)Nc1nsc(-c2ccccc2)n1)S(=O)(=O)c1ccc(Cl)cc1F [2-[(4-chloro-2-fluorophenyl)sulfonyl]-2-methyl-N-(5-phenyl-1,2,4-thiadiazol-3-yl)propanamide]",agonistic activity
17,CC(C)(C(=O)Nc1cccc2ccccc12)S(=O)(=O)c1ccc(S(C)(=O)=O)cc1 [2-(4-Methanesulfonyl-benzenesulfonyl)-2-methyl-N-naphthalen-1-yl-propionamide],agonistic activity
18,CC(C)(C(=O)Nc1ccc(C(F)(F)F)cn1)S(=O)(=O)c1ccc(Cl)nc1 [2-(6-Chloro-pyridine-3-sulfonyl)-2-methyl-N-(5-trifluoromethyl-pyridin-2-yl)-propionamide],agonistic activity
19,Cn1nc(-c2cccs2)cc1NC(=O)C(C)(C)S(=O)(=O)c1ccc(Cl)cc1 [2-(4-Chloro-benzenesulfonyl)-2-methyl-N-(2-methyl-5-thiophen-2-yl-2H-pyrazol-3-yl)-propionamide],agonistic activity
20,CCCc1cc(NC(=O)C(C)(C)S(=O)(=O)c2ccc(C(F)(F)F)nc2)on1 [2-methyl-N-(3-propylisoxazol-5-yl)-2-{[6-(trifluoromethyl)pyridin-3-yl]sulfonyl}propanamide],agonistic activity
21,CC(C)(C(=O)Nc1ccc(C(F)(F)F)cn1)S(=O)(=O)c1ccc(C(F)(F)F)cc1 [2-Methyl-2-(4-trifluoromethyl-benzenesulfonyl)-N-(5-trifluoromethyl-pyridin-2-yl)-propionamide],agonistic activity
22,CCc1ccnc(NC(=O)C(C)(C)S(=O)(=O)c2ccc(Cl)cc2)c1 [2-(4-Chloro-benzenesulfonyl)-N-(4-ethyl-pyridin-2-yl)-2-methyl-propionamide],agonistic activity

# Other lines, results leading:
row,agonistic activity,SMILES
1,agonistic activity,Cc1nc(NC(=O)C(C)(C)S(=O)(=O)c2cccc(F)c2)sc1C(C)(C)C [N-(5-tert-Butyl-4-methyl-thiazol-2-yl)-2-(3-fluoro-benzenesulfonyl)-2-methyl-propionamide]
2,agonistic activity,CC(C)(C(=O)Nc1nc2ccccc2s1)S(=O)(=O)c1ccc(Cl)cc1 [N-Benzothiazol-2-yl-2-(4-chloro-benzenesulfonyl)-2-methyl-propionamide]
3,agonistic activity,CC(C)C(C(=O)Nc1ccc(C(F)(F)F)cn1)S(=O)(=O)c1ccc(C(F)(F)F)cc1 (stereo not drawn) [3-Methyl-2-(4-trifluoromethyl-benzenesulfonyl)-N-(5-trifluoromethyl-pyridin-2-yl)-butyramide]
4,agonistic activity,CC(C(=O)Nc1cc(C(C)(C)C)on1)S(=O)(=O)c1ccc(C(F)(F)F)cc1 (stereo not drawn) [N-(5-tert-Butyl-isoxazol-3-yl)-2-(4-trifluoromethyl-benzenesulfonyl)-propionamide]
5,agonistic activity,"CC(C)(C)Cc1cc(NC(=O)C(C)(C)S(=O)(=O)c2ccc(S(C)(=O)=O)cc2)on1 [N-[3-(2,2-dimethylpropyl)isoxazol-5-yl]-2-methyl-2-{[4-(methylsulfonyl)phenyl]sulfonyl}propanamide]"
6,agonistic activity,Cc1ccc(S(=O)(=O)C(C)(C)C(=O)Nc2nc(C)c(C(C)(C)C)s2)cc1 [N-(5-tert-Butyl-4-methyl-thiazol-2-yl)-2-methyl-2-(toluene-4-sulfonyl)-propionamide]
7,agonistic activity,Cc1ccc(S(=O)(=O)C(C)(C)C(=O)Nc2cc(C(C)(C)C)on2)cn1 [N-(5-tert-Butyl-isoxazol-3-yl)-2-methyl-2-(6-methyl-pyridine-3-sulfonyl)-propionamide]
8,agonistic activity,CC(C)(C)c1cc(NC(=O)C(C)(C)S(=O)(=O)c2cccnc2)no1 [N-(5-tert-Butyl-isoxazol-3-yl)-2-methyl-2-(pyridine-3-sulfonyl)-propionamide]
9,agonistic activity,"CC(C)(C(=O)Nc1nc(-c2ccccc2)cs1)S(=O)(=O)c1ccc(C(F)(F)F)nc1 [2-methyl-N-(4-phenyl-1,3-thiazol-2-yl)-2-{[6-(trifluoromethyl)pyridin-3-yl]sulfonyl}propanamide]"
10,agonistic activity,CC(C)(C(=O)Nc1cccc(C(F)(F)F)n1)S(=O)(=O)c1ccc(S(C)(=O)=O)cc1 [2-methyl-2-{[4-(methylsulfonyl)phenyl]sulfonyl}-N-[6-(trifluoromethyl)pyridin-2-yl]propanamide]
11,agonistic activity,"Cc1c(-c2ccccc2)nn(C)c1NC(=O)C(C)(C)S(=O)(=O)c1ccc(C(F)(F)F)nc1 [N-(1,4-dimethyl-3-phenyl-1H-pyrazol-5-yl)-2-methyl-2-{[6-(trifluoromethyl)pyridin-3-yl]sulfonyl}propanamide]"
12,agonistic activity,"CC(C)(C)c1cc(NC(=O)C(C)(C)S(=O)(=O)c2cc(F)ccc2F)on1 [N-(3-tert-Butyl-isoxazol-5-yl)-2-(2,5-difluoro-benzenesulfonyl)-2-methyl-propionamide]"
13,agonistic activity,CC(C)(C(=O)Nc1ccccc1Cl)S(=O)(=O)c1ccc(C(F)(F)F)cc1 [N-(2-Chloro-phenyl)-2-methyl-2-(4-trifluoromethyl-benzenesulfonyl)-propionamide]
14,agonistic activity,"CC(C)(C(=O)Nc1nc2c(s1)CCCC2)S(=O)(=O)c1ccc(S(C)(=O)=O)cc1 [2-methyl-2-{[4-(methylsulfonyl)phenyl]sulfonyl}-N-(4,5,6,7-tetrahydro-1,3-benzothiazol-2-yl)propanamide]"
